Data published in US9731001B2, “Three-dimensional cavities of dendritic cell immunoreceptor (DCIR), compounds binding thereto and therapeutic applications related to inhibition of human immunodeficiency virus type-1 (HIV-1)” (priority 2011, dated 2017).

What was measured:
Format in all cases: cell-based
DCIR = molecular target: T1, DCIR (Homo sapiens, UniProt Q9UMR7); assay: HIV-1 binding/entry assay on Raji-CD4-DCIR cells (cell-associated p24); settings: 10 μM pre-treatment 10 min; NL4-3 60 min; p24 content
T1 construct: expressed in transfected cells; host or cells: Raji-CD4 (human B cell line stably expressing human CD4), retroviral transduction
T1 sequence (Q9UMR7 1-237): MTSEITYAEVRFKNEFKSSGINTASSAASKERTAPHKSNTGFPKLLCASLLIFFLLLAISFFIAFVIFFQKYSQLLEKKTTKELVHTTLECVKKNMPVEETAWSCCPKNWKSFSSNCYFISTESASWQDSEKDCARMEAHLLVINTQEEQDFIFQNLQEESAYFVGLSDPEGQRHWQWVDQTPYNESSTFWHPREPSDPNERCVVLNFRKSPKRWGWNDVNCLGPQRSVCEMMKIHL
Protocol: FIG. 4 is a bar graph showing that inhibitors decrease HIV-1 binding on DCIR. Raji-CD4-DCIR cells were treated with 10 μM of four site A inhibitors (A1, A2, A3 and A4) and three site B inhibitors (B1, B2 and B3) (or with vehicle (DMSO) only) for 10 min at 37° C. Thereafter, cells were pulsed with NL4-3 for 60 min. After three washes with PBS to remove unadsorbed virus, the abundance of cell-associated viruses was quantified by measuring p24 content. Data shown correspond to the means±SEM of three independent experiments performed with triplicate samples. The asterisk (*) denotes statistically significant data (*, P<0.05, ** P<0.01, *** P<0.001).
(§1) Where indicated, 1×10^6 parental Raji-CD4 cells (DCIR-negative), Raji-CD4-DCIR or Raji-DC-SIGN transfectants were pre-treated with the indicated amount of a chemical inhibitor for 10 min. Cells were then pulsed with NL4-3 (an equivalent of 100 ng of p24) for 60 min at 37° C. The virus-cell mixture was then washed three times with PBS to remove unbound virus and re-suspended in PBS containing 1% BSA. Binding/entry was then determined by the p24 content by ELISA as above. For the infection assay, Raji-CD4 and Raji-CD4-DCIR (1×10^6 cells) were exposed to NL4-3 viral stock (100 ng of p24) for 2 h at 37° C. After three washes with PBS to remove excess virus, cells were maintained in culture for up to 9 days. Cell-free culture supernatants were collected at the indicated time points and assayed for p24 content.

HIV-1 (NL4-3) = assay: HIV-1 infection assay on Raji-CD4 and Raji-CD4-DCIR cells (p24 in supernatant); settings: Raji-CD4 vs Raji-CD4-DCIR, NL4-3 2 h, culture 3 d
Protocol: FIG. 5 is a bar graph showing that specific inhibitors against the site A (A1, A4) and site B (B1, B2) decrease infectivity of Raji-CD4-DCIR. Raji-CD4 and Raji-CD4-DCIR were treated with the inhibitors selected following experiments described in FIG. 4, or DMSO. Cells were then exposed to NL4-3 for 2 h, rinsed and maintained in culture for 3d. Cell-free culture supernatants were collected and assayed for p24 content. Data shown correspond to the means±SEM from 3 independent experiments performed with triplicate samples. The asterisk (*) denotes statistically significant data (*, P<0.05, ** P<0.01, *** P<0.001).
as §1

DC-SIGN = molecular target: T2, DC-SIGN (Homo sapiens, UniProt Q9NNX6); assay: HIV-1 binding to Raji-DC-SIGN cells (p24); settings: NL4-3 60 min
T2 construct: expressed in transfected cells; host or cells: Raji cells stably transfected with a DC-SIGN plasmid
T2 sequence (Q9NNX6 1-404): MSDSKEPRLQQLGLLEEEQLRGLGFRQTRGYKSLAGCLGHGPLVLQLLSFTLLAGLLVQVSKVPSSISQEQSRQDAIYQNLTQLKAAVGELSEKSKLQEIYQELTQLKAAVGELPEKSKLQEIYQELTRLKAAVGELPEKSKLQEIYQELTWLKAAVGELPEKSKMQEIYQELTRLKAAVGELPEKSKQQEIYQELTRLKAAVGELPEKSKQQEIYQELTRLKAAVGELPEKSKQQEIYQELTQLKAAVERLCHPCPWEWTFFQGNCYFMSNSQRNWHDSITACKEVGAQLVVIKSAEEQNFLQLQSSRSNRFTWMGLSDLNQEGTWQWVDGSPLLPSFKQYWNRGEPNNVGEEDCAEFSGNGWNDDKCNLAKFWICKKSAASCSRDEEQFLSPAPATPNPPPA
Protocol: Raji-DC-SIGN cells were treated for 10 min at 37° C. with inhibitors A1 and A4 directed against the site A and B1 and B2 directed against the site B, or with DMSO. Afterwards, cells were pulsed with NL4-3 for 60 min, rinsed thrice with PBS were made to remove unadsorbed virus, and cell-associated viruses were quantified by measuring p24 content. Data shown correspond to the means±SEM of 3 independent experiments performed in triplicate.
as §1

HIV-1 (NL4-3/Balenv) [1] = assay: HIV-1 binding assay on iMDDCs (p24); settings: IM-MDDCs, 10 μM pre-incubation 10 min, NL4-3balenv 60 min
Protocol: (§2) FIG. 7 is bar graphs showing that selected site A and site B inhibitors decrease HIV-1 binding and infection of IM-MDDCs. Upper panel: IM-MDDCs were treated with two chemical inhibitors directed against site A (A1 and A4) and two inhibitors directed against site B (B1 and B2) (or DMSO) for 10 min at 37° C. Next, cells were pulsed with NL4-3balenv for 60 min at 37° C. and rinsed extensively before measuring p24 content. Lower panel: In some experiments, similarly treated IM-MDDCs were pulsed with NL4-3balenv for 2 h at 37° C., rinsed extensively, and maintained in complete culture medium supplemented with GM-CSF and IL-4 for up to 9 days with medium replenishment every 3 days. Cell-free culture supernatants were quantified by measuring p24 content. Data shown correspond to the means±SEM of 3 independent experiments performed in triplicate. The asterisks denotes statistically significant data (*, P<0.05; **, P<0.01; ***, P<0.001).
(§3) For assessing binding/entry, iMDDCs (3×10^5 cells in a final volume of 300 μl) were pre-treated with 10 μM of different chemical inhibitors for 10 min and exposed to NL4-3/Balenv (30 ng of p24) for 60 min at 37° C. After three washes with PBS, cells were re-suspended in PBS containing 1% BSA. The p24 content was determined by ELISA, while susceptibility of iMDDCs to HIV-1 infection was assessed by initially exposing 3×10^5 cells to NL4-3/Balenv (30 ng) at 37° C. for 2 h. After three washes with PBS, cells were maintained in complete RPMI 1640 supplemented with GM-CSF and IL-4 in 96-well plates, in a final volume of 200 μl. Every 3 days and for a 9-day period, half of the conditioned medium was collected and kept at −20° C. until assayed. Virus production was estimated as above by measuring p24 levels by ELISA.

HIV-1 (NL4-3/Balenv) [2] = assay: HIV-1 infection assay on iMDDCs (p24 in supernatant); settings: IM-MDDCs, NL4-3balenv 2 h, culture up to 9 days
Protocol: as §2, §3

c1ccc(-c2ccc(-c3ccccn3)nn2)nc1 [Compound A4, 3,6-di-2 pyridinylpyridazine]
HIV-1 attachment to Raji-CD4-DCIR cells (DCIR): statistically significant decrease
HIV-1 production (HIV-1 (NL4-3)): decreased HIV-1 production only in DCIR-expressing cells
HIV-1 binding to DC-SIGN (DC-SIGN): do not block HIV-1 attachment to DC-SIGN
HIV-1 binding to DCs (HIV-1 (NL4-3/Balenv) [1]): decreased significantly
productive infection of DCs (HIV-1 (NL4-3/Balenv) [2]): blocked productive infection
